Experiments:
[1] = clinical; cited from earlier work
[2] = tested on: orthotopic, syngeneic tumor; assay: Efficacy of Brush prodrugs in orthotopic, syngeneic tumor (tumor volume, tumor weight, body weight); format: in vivo
Description: In FIGS. 5D to 5F, “iBET” refers to OTX-015.
Tumor volumes are calculated after measuring length and width using digital calipers. Tumors were also weighted, and the body weight was measured.

In the case of Cc1sc2c(c1C)C(c1ccc(Cl)cc1)=N[C@@H](CC(=O)Nc1ccc(O)cc1)c1nnc(C)n1-2 [OTX-015], the “dose-limiting toxicity: anemia” value [1] is given as 91%, the “dose-limiting toxicity: neutropenia” value [1] is given as 51% and the “dose-limiting toxicity: thrombocytopenia” value [1] is given as 96%. For the same compound, the body weight loss ([2]; tolerated dose 100 mpk BID, PO (FIG. 5C)) was “minor weight loss” and the body weight loss ([2]; tolerated doses 5 mpk and 10 mpk (FIG. 5F)) was “minor weight loss”.
